Assay type in all cases: in vivo
Assay [1] has as its system lumen of tumor blood vessels of LLC cell tumors. The assay can be described thus: Structural changes in lumen of tumor blood vessels (scanning electron microscopy). The note with it: LLC tumor-bearing mice, LPA 3 mg/kg i.p., 24 hours after administration. On the procedure:
LLC cells were subcutaneously inoculated into C57BL/6 NCrSlc mice aged 8 weeks (females, SLC, Inc.) in the same manner as in Example 1. An LPA administration solution was prepared in the same manner as in Example 1. Mice on day 9 post-inoculation of LLC cells (individuals with a tumor volume of 60 to 80 mm^3) were subjected to the experiment. The mice were divided into two groups: control group and LPA group (n=3). LPA (3 mg/kg in 100 μL PBS) or PBS (100 μL) was administered intraperitoneally. At 24 hours after LPA or PBS administration, mice were perfusion fixed under anesthesia with pentobarbital (Kyoritsu Seiyaku Corporation). The fixative used was 0.1 M phosphate buffer (pH 7.4) containing 2% formaldehyde and 2.5% glutaraldehyde. Tumors were then harvested and immersed in the same fixative as that used for perfusion and shaken at 4° C. overnight. The specimens were further immersed in 0.1 M phosphate buffer (pH 7.4) containing 1% osmium tetroxide and 0.5% potassium ferrocyanide. The specimens were dehydrated in an ascending series of ethanol, then the alcohol was replaced with t-butyl alcohol and the specimens were freeze-dried.

The test system of assay [2] is LLC cell tumors. The assay can be described thus: Doxorubicin delivery from tumor blood vessels to tumor tissues after LPA administration. The settings on record: LLC tumor-bearing mice, LPA 3 mg/kg i.p., doxorubicin 1.5 mg/kg i.v. 24 hours later, tumors harvested after 20 minutes. As to the method: LLC cells were subcutaneously inoculated into C57BL/6 NCrSlc mice aged 8 weeks (females, SLC, Inc.) in the same manner as in Example 1. An LPA administration solution was prepared in the same manner as in Example 1. On day 11 post-inoculation of LLC cells, mice with a tumor volume of 100 to 120 mm^3 were selected. The mice were divided into two groups: control group and LPA group (n=3). LPA (3 mg/kg in 100 μL PBS) or PBS (100 μL) was administered intraperitoneally. At 24 hours after LPA or PBS administration, doxorubicin (doxorubicin hydrochloride, Nippon Kayaku Co., Ltd.) was administered to the tail vein of the mice at a dose of 1.5 mg/kg under anesthesia with pentobarbital. The doxorubicin was prepared as a solution by dissolving and diluting the doxorubicin hydrochloride in physiological saline (Otsuka Pharmaceutical Co., Ltd.) to a concentration of 1.5 mg/kg and homogenizing the solution with an ultrasonic cleaner for 1 minute before administration. Doxorubicin is an autofluorescent anticancer drug that can be detected at an excitation wavelength of 480 nm and a measurement wavelength of 575 nm. At 20 minutes after administration of doxorubicin, the tumors were harvested from the mice, and the tumor specimens were prepared in the same manner as in Example 1 except that the thickness of the sections was 20 μm. […]

Assay [3] has as its system LLC cell tumors. The assay can be described thus: Delivery of FITC-labeled dextrans (70 kDa, 2000 kDa) to tumor tissues after LPA administration. The note with it: LLC tumor-bearing mice, LPA 3 mg/kg i.p., dextran i.v. 24 hours later, tumors harvested after 30 minutes. On the procedure: LLC cells were subcutaneously inoculated into C57BL/6 NCrSlc mice aged 8 weeks (females, SLC, Inc.) in the same manner as in Example 1. An LPA administration solution was prepared in the same manner as in Example 1. On day 11 post-inoculation of LLC cells, mice with a tumor volume of 100 to 120 mm^3 were selected. The mice were divided into four groups: control and LPA groups with administration of 70 kDa dextran, and control and LPA groups with administration of 2000 kDa dextran (n=3). LPA (3 mg/kg in 100 μL PBS) or PBS (100 μL) was administered intraperitoneally. At 24 hours after LPA or PBS administration, each type of dextran was administered to the tail vein of the mice under anesthesia with pentobarbital. The dextrans used (70 kDa and 2000 kDa) were FITC-labeled dextrans (Sigma). Each type of dextran was prepared as a solution by dissolving and diluting the FITC-labeled dextran in PBS to a concentration of […], and 100 μL of the solution was used for the administration. At 30 minutes after administration of each type of dextran, the tumors were harvested from the mice, and the tumor specimens were prepared in the same manner as in Example 4. The specimens were observed and photographed under a confocal laser microscope (Leica).

The test system of assay [4] is Mouse melanoma B16-BL6 cells. Description: Combined administration of LPA and 5-FU, tumor growth in B16-BL6 cell tumor-bearing mice. The settings on record: B16-BL6 tumors; LPA 3 mg/kg i.p. once daily for seven days; 5-FU 100 mg/kg i.p. on days 7 and 14. As to the method: (§1) LLC cells were subcutaneously inoculated into C57BL/6 NCrSlc mice aged 8 weeks in the same manner as in Example 1. An LPA administration solution was prepared in the same manner as in Example 1. The anticancer drug used was 5-FU (Kyowa Hakko Kirin Co., Ltd.). The 5-FU was prepared as a solution in physiological saline (Otsuka Pharmaceutical Co., Ltd.). On day 7 post-inoculation of LLC cells, mice with a tumor volume of 30 to 50 mm^3 were selected and subjected to the test. The mice were divided into four groups: control group, 5-FU group, LPA group and 5-FU/LPA group (n=3). LPA (3 mg/kg in 100 μL PBS) or 5-FU (100 mg/kg in 100 μL PBS) or PBS (100 μL) was administered intraperitoneally. To 5-FU/LPA group, both LPA and 5-FU were administered intraperitoneally. LPA and PBS were administered once daily for consecutive seven days. 5-FU was administered twice in total, once a week for two weeks (on days 7 and 14 post-inoculation). The tumor size was measured over time after start of administration. The tumor volume was calculated by the formula: volume=length×width×height×0.5. Mice at 2 weeks after start of administration were photographed with a digital camera under anesthesia with pentobarbital. The tumors were harvested and photographed with a digital camera.
Mouse melanoma B16-BL6 cells were used. […]

In assay [5] the test system is Mouse colon cancer colon 26 cells. The assay can be described thus: Combined administration of LPA and 5-FU, tumor growth in colon 26 cell tumor-bearing mice. The settings on record: colon 26 tumors in BALB/c mice; LPA 3 mg/kg i.p. once daily for seven days; 5-FU 100 mg/kg i.p. on days 7 and 14. As to the method: as §1
Mouse colon cancer colon 26 cells were used. […]

On to lysophosphatidic acid [LPA], for which the “intraluminal surface of tumor blood vessels” value in assay [1] is “the intraluminal surface of the blood vessels was very smooth”. For the same substance, the “delivery of doxorubicin from blood vessels to tumor” value in the assay with LLC cell tumors [2] is on record as “delivery of doxorubicin from the blood vessels to tumors in the deep lobe was observed”. Moreover, in the assay with LLC cell tumors [3], the “delivery of 70 kDa FITC-labeled dextran to tumor” value is “delivery of 70 kDa and 2000 kDa dextrans to tumors in the deep lobe was observed”; the “delivery of 2000 kDa FITC-labeled dextran to tumor” value is “delivery of 70 kDa and 2000 kDa dextrans to tumors in the deep lobe was observed”. For the same substance, in assay [4], the “tumor growth (tumor volume)” value was “some inhibitory effects on tumor growth as compared with the control”. In addition, in assay [5], the “tumor growth (tumor volume)” value is “some inhibitory effects on tumor growth as compared with the control, up to day 17 post-inoculation”.
